Target: BoNT/A (Clostridium botulinum, UniProt P0DPI1)
Type: biochemical

Sequence of BoNT/A (P0DPI1 whole entry, looked up): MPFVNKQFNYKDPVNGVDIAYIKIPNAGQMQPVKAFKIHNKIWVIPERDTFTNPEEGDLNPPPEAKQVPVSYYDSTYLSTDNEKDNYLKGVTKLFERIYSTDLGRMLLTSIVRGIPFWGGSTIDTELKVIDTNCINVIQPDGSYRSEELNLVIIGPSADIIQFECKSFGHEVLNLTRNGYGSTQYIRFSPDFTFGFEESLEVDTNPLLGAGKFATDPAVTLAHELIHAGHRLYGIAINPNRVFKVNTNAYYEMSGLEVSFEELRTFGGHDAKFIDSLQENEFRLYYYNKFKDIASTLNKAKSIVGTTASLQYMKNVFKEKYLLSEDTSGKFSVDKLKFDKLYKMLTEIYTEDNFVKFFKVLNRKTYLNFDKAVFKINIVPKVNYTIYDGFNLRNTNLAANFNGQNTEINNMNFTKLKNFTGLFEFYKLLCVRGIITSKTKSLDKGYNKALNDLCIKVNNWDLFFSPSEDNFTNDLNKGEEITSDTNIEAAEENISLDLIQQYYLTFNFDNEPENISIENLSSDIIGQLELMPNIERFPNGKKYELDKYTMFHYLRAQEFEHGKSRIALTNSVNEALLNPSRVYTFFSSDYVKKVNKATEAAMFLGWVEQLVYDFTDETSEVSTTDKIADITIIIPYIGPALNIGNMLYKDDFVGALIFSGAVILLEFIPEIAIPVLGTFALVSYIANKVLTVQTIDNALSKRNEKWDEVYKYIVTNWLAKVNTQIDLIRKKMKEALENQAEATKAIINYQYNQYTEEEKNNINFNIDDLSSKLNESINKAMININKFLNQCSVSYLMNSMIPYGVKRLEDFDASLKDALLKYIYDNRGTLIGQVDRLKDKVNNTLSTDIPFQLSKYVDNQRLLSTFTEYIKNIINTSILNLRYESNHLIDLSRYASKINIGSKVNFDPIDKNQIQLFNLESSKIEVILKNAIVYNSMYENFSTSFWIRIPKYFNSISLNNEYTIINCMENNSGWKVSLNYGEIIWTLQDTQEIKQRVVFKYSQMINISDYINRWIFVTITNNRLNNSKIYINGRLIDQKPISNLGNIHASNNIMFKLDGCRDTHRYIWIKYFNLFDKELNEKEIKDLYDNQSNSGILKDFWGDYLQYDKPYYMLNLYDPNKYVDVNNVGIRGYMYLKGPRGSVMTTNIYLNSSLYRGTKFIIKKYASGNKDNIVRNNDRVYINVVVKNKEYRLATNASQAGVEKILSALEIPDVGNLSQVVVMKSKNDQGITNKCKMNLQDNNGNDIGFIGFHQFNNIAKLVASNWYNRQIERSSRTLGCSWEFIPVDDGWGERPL

TPEN
Effect on fluorescent signal of BoNT/A ALISSA: significant suppression of fluorescent signal

Source: PMC3748743 (Analytical chemistry, 2013)
